The values below come from the supplement of paper PMC10307832.

One assay relates to NCI-H441. The assay can be described thus: relative viability (nuclei count vs DMSO), 5 days (fraction); higher = more cells survive. The conditions noted are these: first compound 0.2 µM. An outline of the steps: (§1)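 A single step with final 0.05% Triton X-100, 1% formaldehyde and 1 ug/ml Hoechst fixed the cells and stained nuclei 5 days after treatment. Lung cancer cell lines in 1536-well plates had been treated by pin tool the day after seeding with one drug alone or a fixed anchor-drug dose plus five library-drug doses (not always all listed) in √10 steps, and nuclei were counted on 4× images. Relative viability is the ratio of nuclei in treated wells to nuclei in vehicle wells, taken as the median of duplicate plates.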
`COCC1(CO)C(=O)C2CCN1CC2` (stereo not given) [PRIMA-1MET] + COc1cc2c(Oc3ccc(NC(=O)C4(C(=O)Nc5ccc(F)cc5)CC4)cc3F)ccnc2cc1OCCCN1CCOCC1 [Foretinib] (partner 0.25 µM) returned a relative viability of 0.954.

With `COCC1(CO)C(=O)C2CCN1CC2` (stereo not given) [PRIMA-1MET] + NC(=O)Nc1cc(-c2cccc(F)c2)sc1C(=O)N[C@H]1CCCNC1 [AZD7762] (partner 0.2 µM), the relative viability turned out to be 1.09.

In turn, `COCC1(CO)C(=O)C2CCN1CC2` (stereo not given) [PRIMA-1MET] + Nc1nc2[nH]cc(CCc3ccc(C(=O)N[C@@H](CCC(=O)O)C(=O)O)cc3)c2c(=O)[nH]1 [Pemetrexed] (partner 0.2 µM) yielded a relative viability of 0.24.

For the molecule `COCC1(CO)C(=O)C2CCN1CC2` (stereo not given) [PRIMA-1MET] + CC(=O)Nc1cccc(-n2c(=O)n(C3CC3)c(=O)c3c(Nc4ccc(I)cc4F)n(C)c(=O)c(C)c32)c1 [Trametinib] (partner 0.02 µM), the relative viability worked out at 0.418.

`COCC1(CO)C(=O)C2CCN1CC2` (stereo not given) [PRIMA-1MET] + Nc1ncn([C@H]2C[C@H](O)[C@@H](CO)O2)c(=O)n1 [Decitabine] (partner 2 µM) displayed a relative viability of 0.232.

The same assay, now with this note: first compound 0.6325 µM.
`COCC1(CO)C(=O)C2CCN1CC2` (stereo not given) [PRIMA-1MET] + COc1cc2c(Oc3ccc(NC(=O)C4(C(=O)Nc5ccc(F)cc5)CC4)cc3F)ccnc2cc1OCCCN1CCOCC1 [Foretinib] (partner 0.25 µM) had a relative viability of 0.908.

`COCC1(CO)C(=O)C2CCN1CC2` (stereo not given) [PRIMA-1MET] + NC(=O)Nc1cc(-c2cccc(F)c2)sc1C(=O)N[C@H]1CCCNC1 [AZD7762] (partner 0.2 µM) displayed a relative viability of 1.06.

The molecule `COCC1(CO)C(=O)C2CCN1CC2` (stereo not given) [PRIMA-1MET] + Nc1nc2[nH]cc(CCc3ccc(C(=O)N[C@@H](CCC(=O)O)C(=O)O)cc3)c2c(=O)[nH]1 [Pemetrexed] (partner 0.2 µM) displayed a relative viability of 0.2.

In the case of `COCC1(CO)C(=O)C2CCN1CC2` (stereo not given) [PRIMA-1MET] + CC(=O)Nc1cccc(-n2c(=O)n(C3CC3)c(=O)c3c(Nc4ccc(I)cc4F)n(C)c(=O)c(C)c32)c1 [Trametinib] (partner 0.02 µM), the relative viability is 0.297.

`COCC1(CO)C(=O)C2CCN1CC2` (stereo not given) [PRIMA-1MET] + Nc1ncn([C@H]2C[C@H](O)[C@@H](CO)O2)c(=O)n1 [Decitabine] (partner 2 µM) came in with a relative viability of 0.21.

Staying with this assay, now noted: first compound 2 µM.
Regarding `COCC1(CO)C(=O)C2CCN1CC2` (stereo not given) [PRIMA-1MET] + COc1cc2c(Oc3ccc(NC(=O)C4(C(=O)Nc5ccc(F)cc5)CC4)cc3F)ccnc2cc1OCCCN1CCOCC1 [Foretinib] (partner 0.25 µM), the relative viability was determined as 0.988.

Molecule `COCC1(CO)C(=O)C2CCN1CC2` (stereo not given) [PRIMA-1MET] + NC(=O)Nc1cc(-c2cccc(F)c2)sc1C(=O)N[C@H]1CCCNC1 [AZD7762] (partner 0.2 µM) registered a relative viability of 0.833.

Turning to `COCC1(CO)C(=O)C2CCN1CC2` (stereo not given) [PRIMA-1MET] + Nc1nc2[nH]cc(CCc3ccc(C(=O)N[C@@H](CCC(=O)O)C(=O)O)cc3)c2c(=O)[nH]1 [Pemetrexed] (partner 0.2 µM), the relative viability was determined as 0.271.

`COCC1(CO)C(=O)C2CCN1CC2` (stereo not given) [PRIMA-1MET] + CC(=O)Nc1cccc(-n2c(=O)n(C3CC3)c(=O)c3c(Nc4ccc(I)cc4F)n(C)c(=O)c(C)c32)c1 [Trametinib] (partner 0.02 µM) displayed a relative viability of 0.369.

As to `COCC1(CO)C(=O)C2CCN1CC2` (stereo not given) [PRIMA-1MET] + Nc1ncn([C@H]2C[C@H](O)[C@@H](CO)O2)c(=O)n1 [Decitabine] (partner 2 µM), the relative viability amounted to 0.22.

Still in this assay, the particulars now being: first compound 6.325 µM.
`COCC1(CO)C(=O)C2CCN1CC2` (stereo not given) [PRIMA-1MET] + COc1cc2c(Oc3ccc(NC(=O)C4(C(=O)Nc5ccc(F)cc5)CC4)cc3F)ccnc2cc1OCCCN1CCOCC1 [Foretinib] (partner 0.25 µM) gave a relative viability of 1.

On to `COCC1(CO)C(=O)C2CCN1CC2` (stereo not given) [PRIMA-1MET] + NC(=O)Nc1cc(-c2cccc(F)c2)sc1C(=O)N[C@H]1CCCNC1 [AZD7762] (partner 0.2 µM), for which the relative viability worked out at 1.1.

The molecule `COCC1(CO)C(=O)C2CCN1CC2` (stereo not given) [PRIMA-1MET] + Nc1nc2[nH]cc(CCc3ccc(C(=O)N[C@@H](CCC(=O)O)C(=O)O)cc3)c2c(=O)[nH]1 [Pemetrexed] (partner 0.2 µM) showed a relative viability of 0.274.

`COCC1(CO)C(=O)C2CCN1CC2` (stereo not given) [PRIMA-1MET] + CC(=O)Nc1cccc(-n2c(=O)n(C3CC3)c(=O)c3c(Nc4ccc(I)cc4F)n(C)c(=O)c(C)c32)c1 [Trametinib] (partner 0.02 µM) yielded a relative viability of 0.399.

As for `COCC1(CO)C(=O)C2CCN1CC2` (stereo not given) [PRIMA-1MET] + Nc1ncn([C@H]2C[C@H](O)[C@@H](CO)O2)c(=O)n1 [Decitabine] (partner 2 µM), the relative viability turned out to be 0.23.

Still in this assay, the particulars now being: first compound 20 µM.
For the molecule `COCC1(CO)C(=O)C2CCN1CC2` (stereo not given) [PRIMA-1MET] + COc1cc2c(Oc3ccc(NC(=O)C4(C(=O)Nc5ccc(F)cc5)CC4)cc3F)ccnc2cc1OCCCN1CCOCC1 [Foretinib] (partner 0.25 µM), the relative viability is 0.496.

`COCC1(CO)C(=O)C2CCN1CC2` (stereo not given) [PRIMA-1MET] + NC(=O)Nc1cc(-c2cccc(F)c2)sc1C(=O)N[C@H]1CCCNC1 [AZD7762] (partner 0.2 µM): the relative viability worked out at 0.731.

`COCC1(CO)C(=O)C2CCN1CC2` (stereo not given) [PRIMA-1MET] + Nc1nc2[nH]cc(CCc3ccc(C(=O)N[C@@H](CCC(=O)O)C(=O)O)cc3)c2c(=O)[nH]1 [Pemetrexed] (partner 0.2 µM) yielded a relative viability of 0.204.

In turn, `COCC1(CO)C(=O)C2CCN1CC2` (stereo not given) [PRIMA-1MET] + CC(=O)Nc1cccc(-n2c(=O)n(C3CC3)c(=O)c3c(Nc4ccc(I)cc4F)n(C)c(=O)c(C)c32)c1 [Trametinib] (partner 0.02 µM) returned a relative viability of 0.267.

On to `COCC1(CO)C(=O)C2CCN1CC2` (stereo not given) [PRIMA-1MET] + Nc1ncn([C@H]2C[C@H](O)[C@@H](CO)O2)c(=O)n1 [Decitabine] (partner 2 µM), for which the relative viability was determined as 0.169.

A further assay has as its system LK-2. The description is as above. As to conditions: first compound 0.2 µM. In short, it runs like this: as §1
In turn, `COCC1(CO)C(=O)C2CCN1CC2` (stereo not given) [PRIMA-1MET] + COc1cc2c(Oc3ccc(NC(=O)C4(C(=O)Nc5ccc(F)cc5)CC4)cc3F)ccnc2cc1OCCCN1CCOCC1 [Foretinib] (partner 0.25 µM) displayed a relative viability of 1.4.

In the case of `COCC1(CO)C(=O)C2CCN1CC2` (stereo not given) [PRIMA-1MET] + NC(=O)Nc1cc(-c2cccc(F)c2)sc1C(=O)N[C@H]1CCCNC1 [AZD7762] (partner 0.2 µM), the relative viability is 0.469.

In turn, `COCC1(CO)C(=O)C2CCN1CC2` (stereo not given) [PRIMA-1MET] + Nc1nc2[nH]cc(CCc3ccc(C(=O)N[C@@H](CCC(=O)O)C(=O)O)cc3)c2c(=O)[nH]1 [Pemetrexed] (partner 0.2 µM) showed a relative viability of 0.271.

In the case of `COCC1(CO)C(=O)C2CCN1CC2` (stereo not given) [PRIMA-1MET] + CC(=O)Nc1cccc(-n2c(=O)n(C3CC3)c(=O)c3c(Nc4ccc(I)cc4F)n(C)c(=O)c(C)c32)c1 [Trametinib] (partner 0.02 µM), the relative viability is 0.477.

The molecule `COCC1(CO)C(=O)C2CCN1CC2` (stereo not given) [PRIMA-1MET] + Nc1ncn([C@H]2C[C@H](O)[C@@H](CO)O2)c(=O)n1 [Decitabine] (partner 2 µM) had a relative viability of 0.262.
